What was measured:
[1] = system: bladder cancer cell lines; assay: Cell proliferation, CellTiter-Glo, 72 hours; assay type: cell-based, human; details: three bladder cancer cell lines
other CK1 isoforms = assay: Specificity among CK1 isoforms; assay type: biochemical
[2] = system: phosphorylation of 4E-BP1 in T24 cells; assay: Phosphorylation of 4E-BP1 by western blot; assay type: cell-based, human; details: 1 μM, 24h
97 kinases = assay: KINOMEscan profiling; assay type: binding; details: 97 kinases examined

Antiproliferative potency, EC50 [1] | Structure (SMILES) | Inhibition of other CK1 isoforms (other CK1 isoforms) | Inhibition of phosphorylation of T37/46, S65 and T70 of 4E-BP1 [2] | KINOMEscan binding affinity (97 kinases)
nanomolar | COc1ccc(-n2cnc3c(NCc4nc5c(F)c(F)ccc5[nH]4)nc(N4CCOCC4)nc32)cc1 [SR-4310, N-((6,7-difluoro-1H-benzo[d]imidazol-2-yl)methyl)-9-(4-methoxyphenyl)-2-morpholino-9H-purin-6-amine] | do not inhibit |  | 
high nanomolar | Fc1ccc2[nH]c(CNc3nc(N4CCOCC4)nc4c3ncn4-c3ccc4ccccc4c3)nc2c1F [SR-4133, N-((4,5-difluoro-1H-benzo[d]imidazol-2-yl)methyl)-2-morpholino-9-(naphthalen-2-yl)-9Hpurin-6-amine] | do not inhibit | blocks the phosphorylation | weak binding affinity only to CK1δ, PDGFRB, and TRKA

From article PMC10304650 (Journal of medicinal chemistry, 2023)
